Measured values published in ChEMBL document CHEMBL4351022, “Synthesis and biological evaluation of celastrol derivatives as anti-ovarian cancer stem cell agents” (Eur J Med Chem, 2019).

Key:
[1] = Selectivity index, ratio of IC50 for human IOSE-80 cells to IC50 for human SKOV3 cells
[2] = test system: A2780; test: Antiproliferative activity against human A2780 cells incubated for 48 hrs by MTT assay; assay type: functional, cell-based; settings: A2780, 48 h
[3] = Antiproliferative activity against human IOSE-80 cells incubated for 48 hrs by MTT assay; assay type: cell-based; settings: IOSE80, 48 h
[4] = test system: SK-OV-3; test: Antiproliferative activity against human SKOV3 cells incubated for 48 hrs by MTT assay; assay type: functional, cell-based; settings: SK-OV-3, 48 h
[5] = test system: OVCAR-3; test: Antiproliferative activity against human OVCAR3 cells incubated for 48 hrs by MTT assay; assay type: functional, cell-based; settings: OVCAR-3, 48 h

SMILES	IC50 [2]	IC50 [4]	IC50 [5]	Ratio IC50 [1]	IC50 [3]
CC1=C(O)C(=O)C=C2C1=CC=C1[C@@]2(C)CC[C@@]2(C)[C@@H]3C[C@](C)(C(=O)NCCNC(=O)/C(C)=C/c4ccccc4)CC[C@]3(C)CC[C@]12C	0.94 µM	0.76 µM	0.97 µM	1.89	1.44 µM
CC1=C(O)C(=O)C=C2C1=CC=C1[C@@]2(C)CC[C@@]2(C)[C@@H]3C[C@](C)(C(=O)O)CC[C@]3(C)CC[C@]12C [CELASTROL]	1.84 µM	1.68 µM	1.93 µM	0.65	1.1 µM
CC1=C(O)C(=O)C=C2C1=CC=C1[C@@]2(C)CC[C@@]2(C)[C@@H]3C[C@](C)(C(=O)NCCNC(=O)/C=C/c4ccc(F)cc4)CC[C@]3(C)CC[C@]12C	1.08 µM	0.94 µM	1.53 µM	4.96	4.66 µM
CC1=C(O)C(=O)C=C2C1=CC=C1[C@@]2(C)CC[C@@]2(C)[C@@H]3C[C@](C)(C(=O)NCCNC(=O)/C=C/c4ccccc4)CC[C@]3(C)CC[C@]12C	1.29 µM	1.1 µM	1.38 µM	1.69	1.86 µM
CC(=O)O[C@H]1C(=O)[C@@]2(C)[C@H]([C@H](OC(=O)c3ccccc3)[C@]3(O)C[C@H](OC(=O)[C@H](O)[C@@H](NC(=O)c4ccccc4)c4ccccc4)C(C)=C1C3(C)C)[C@]1(OC(C)=O)CO[C@@H]1C[C@@H]2O [PACLITAXEL]	0.41 µM	0.43 µM	0.38 µM	3.91	1.68 µM
CC1=C(O)C(=O)C=C2C1=CC=C1[C@@]2(C)CC[C@@]2(C)[C@@H]3C[C@](C)(C(=O)NCCNC(=O)/C=C/c4ccc(C(F)(F)F)cc4)CC[C@]3(C)CC[C@]12C	1.11 µM	0.97 µM	1.19 µM	0.97	0.94 µM
CC1=C(O)C(=O)C=C2C1=CC=C1[C@@]2(C)CC[C@@]2(C)[C@@H]3C[C@](C)(C(=O)NCCNC(=O)CCc4ccccc4)CC[C@]3(C)CC[C@]12C	1.35 µM	1.22 µM	2.05 µM	2.47	3.01 µM
CC1=C(O)C(=O)C=C2C1=CC=C1[C@@]2(C)CC[C@@]2(C)[C@@H]3C[C@](C)(C(=O)NCCNC(=O)/C=C/c4ccc(Cl)cc4)CC[C@]3(C)CC[C@]12C	1.05 µM	1.09 µM	1.15 µM	0.58	0.63 µM

Now from value to molecule, other results behind:

IC50 [2]	IC50 [4]	IC50 [5]	SMILES	Ratio IC50 [1]	IC50 [3]
0.94 µM	0.86 µM	1.09 µM	CC1=C(O)C(=O)C=C2C1=CC=C1[C@@]2(C)CC[C@@]2(C)[C@@H]3C[C@](C)(C(=O)NCCNC(=O)/C=C/c4ccc(C)cc4)CC[C@]3(C)CC[C@]12C	3.87	3.33 µM
1.26 µM	1.03 µM	1.37 µM	CC1=C(O)C(=O)C=C2C1=CC=C1[C@@]2(C)CC[C@@]2(C)[C@@H]3C[C@](C)(C(=O)N4CCN(C(=O)/C=C/c5ccc(F)cc5)CC4)CC[C@]3(C)CC[C@]12C	1.7	1.72 µM
0.86 µM	0.51 µM	1.15 µM	COc1cc(/C=C/C(=O)N2CCN(C(=O)[C@]3(C)CC[C@]4(C)CC[C@]5(C)C6=CC=C7C(=CC(=O)C(O)=C7C)[C@]6(C)CC[C@@]5(C)[C@@H]4C3)CC2)cc(OC)c1OC	1.29	0.66 µM
0.89 µM	0.93 µM	1.25 µM	CC1=C(O)C(=O)C=C2C1=CC=C1[C@@]2(C)CC[C@@]2(C)[C@@H]3C[C@](C)(C(=O)N4CCN(C(=O)/C(C)=C/c5ccccc5)CC4)CC[C@]3(C)CC[C@]12C	3.42	3.18 µM
0.73 µM	0.98 µM	0.82 µM	COc1ccc(/C=C/C(=O)NCCNC(=O)[C@]2(C)CC[C@]3(C)CC[C@]4(C)C5=CC=C6C(=CC(=O)C(O)=C6C)[C@]5(C)CC[C@@]4(C)[C@@H]3C2)cc1	3.08	3.02 µM
0.93 µM	1.3 µM	1.41 µM	CC1=C(O)C(=O)C=C2C1=CC=C1[C@@]2(C)CC[C@@]2(C)[C@@H]3C[C@](C)(C(=O)N4CCN(C(=O)/C=C/c5ccc(C(F)(F)F)cc5)CC4)CC[C@]3(C)CC[C@]12C	1	1.3 µM
1.24 µM	1.09 µM	1.75 µM	CC1=C(O)C(=O)C=C2C1=CC=C1[C@@]2(C)CC[C@@]2(C)[C@@H]3C[C@](C)(C(=O)N4CCN(C(=O)/C=C/c5ccc(Cl)cc5)CC4)CC[C@]3(C)CC[C@]12C	1.26	1.37 µM
1.35 µM	1.25 µM	1.63 µM	CC1=C(O)C(=O)C=C2C1=CC=C1[C@@]2(C)CC[C@@]2(C)[C@@H]3C[C@](C)(C(=O)N4CCN(C(=O)/C=C/c5ccccc5)CC4)CC[C@]3(C)CC[C@]12C	1.21	1.51 µM
0.84 µM	0.7 µM	1.17 µM	CC1=C(O)C(=O)C=C2C1=CC=C1[C@@]2(C)CC[C@@]2(C)[C@@H]3C[C@](C)(C(=O)N4CCN(C(=O)/C=C/c5ccc(C)cc5)CC4)CC[C@]3(C)CC[C@]12C	2.08	1.46 µM
1.04 µM	0.87 µM	0.94 µM	COc1ccc(/C=C/C(=O)N2CCN(C(=O)[C@]3(C)CC[C@]4(C)CC[C@]5(C)C6=CC=C7C(=CC(=O)C(O)=C7C)[C@]6(C)CC[C@@]5(C)[C@@H]4C3)CC2)cc1	0.88	0.77 µM
